These results are taken from PMC9330042, “Synthesis and Biological Studies of Novel Aminophosphonates and Their Metal Carbonyl Complexes (Fe, Ru)” (International Journal of Molecular Sciences, 2022).

The data set deals with V79 cell line. The data set can be described thus: MTT cytotoxicity test. The following applies: V79 cells, 24 h, tested range 100–1000 µM; viability below 70% indicates cytotoxicity. The class given is cell-based, Cricetulus griseus. The method, then:
Cell viability below 70% indicates cytotoxicity.
V79 cells (Cricetulus griseus lung fibroblast cell line) (European Collection of Cell Culture) were grown in MEM (PAN-Biotech, Aidenbach, Germany) containing 2 mM glutamine (Sigma Aldrich, Darmstadt, Germany)), 1% non-essential amino acids (Biological Industries, Cromwell, U.S), 10% FBS (Biowest, Nuaillé, France), and 100 units/mL penicillin and […] (Biological Industries, Cromwell, U.S). Cells were plated and grown in an incubator at 37 °C with 5% CO2 to 80% confluence before the initiation of the assay.
V79 cells were seeded at a density of 1 × 10^4 cells per well and were incubated for 24 h. After 24 h, the medium was removed from the wells, and cells were exposed to the compound solutions over a range of concentrations or nothing but culture medium (blank control). Cells were further incubated for an additional 24 h. At the end, the medium was removed and MTT solution (0.75 mg/mL) was added. Next, plates were incubated in the dark for 2 h at 37 °C. Then, the MTT solution was removed and DMSO was added to each well. Plates were incubated for 10 min at room temperature. The absorbance at 570 nm was measured on a microplate reader. Cell viability was expressed as a percentage of the control values (blank).
Background: Tetrazolium dyes change colour on reduction, which living cells bring about.
As to `CCOP(=O)(Cc1ccccc1CN)OCC` [8a], the “Cytotoxicity (in words)” value is recorded as “Non-toxic”.

Take `CCOP(=O)(Cc1ccc(CN)cc1)OCC` [8c]: the “Cytotoxicity (in words)” value was “Non-toxic”.

Turning to `CCOP(=O)(Cc1cccc(CN)c1)OCC` [8b], the “Cytotoxicity (in words)” value is “Non-toxic”.
